Patent US20250228239A1, “MOLECULES HAVING PESTICIDAL UTILITY, AND INTERMEDIATES, COMPOSITIONS, AND PROCESSES, RELATED THERETO” (priority 2024, published 2025)
Read-outs that look alike come from different tables or passages of the source.

Legend:
Format in all cases: in vivo
[1] = tested on: Beet Armyworm (Spodoptera exigua, LAPHEG); experiment: Bioassays on Beet Armyworm (BAW), 128-well diet tray assay; conditions: for pest or weed control at 50 µg/cm2: Spodoptera exigua
Outline: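 Larvae at second instar are exposed on dried, compound-treated diet (50 μg/cm^2, delivered in 90:10 acetone-water) in eight replicate wells. After five to seven days at 25° C., 14:10 light-dark, percent mortality in each well is scored and the eight wells averaged.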

[2] = tested on: Yellow Fever Mosquito (Aedes aegypti, AEDSAE); conditions: for YFM rating: Yellow Fever Mosquito, Table ABC / ABC-DP rating; for YFM: Table ABC: Biological Results, species YFM
Outline: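 Rating-scale grades reflect larval mortality scored per well after 3 days at room temperature under non-evaporative lids. Larvae (~1 day old, hatched overnight in liver-powder water) were added to six daughter plates per compound, prepared from a 4000 ppm DMSO stock diluted in 90:10 water/acetone.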

[3] = tested on: Green Peach Aphid (Myzus persicae, MYZUPE); experiment: Bioassays on Green Peach Aphid (GPA), foliar spray on cabbage seedlings; conditions: 72 h
Outline: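 Percent control (Abbott-corrected versus solvent-sprayed plants) comes from live-aphid counts three days after treatment at about 25° C. Test solution at 200 ppm was sprayed to runoff onto both leaf surfaces of cabbage seedlings infested a day earlier with 20-50 aphids; four replicate pots.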

[4] = tested on: Cabbage Looper (Trichoplusia ni, TRIPNI); experiment: Bioassays on Cabbage Looper (CL), 128-well diet tray assay; conditions: for pest or weed control at 50 µg/cm2: Trichoplusia ni
Outline: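 Activity is mean percent mortality over eight wells of second-instar larvae exposed to diet treated at 50 μg/cm^2 for 5–7 days at 25° C.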

[5] = Beet Armyworm, Table ABC / ABC-DP rating, read-out: BAW rating
[6] = Green Peach Aphid, Table ABC / ABC-DP rating, read-out: GPA rating
[7] = Cabbage Looper, Table ABC / ABC-DP rating, read-out: CL rating
[8] = Table ABC: Biological Results, species BAW, read-out: BAW
[9] = Table ABC: Biological Results, species GPA, read-out: GPA
[10] = Table ABC: Biological Results, species CL, read-out: CL

With Cc1c(Cl)cc(NC(=O)[C@H]2[C@H](c3ccc(F)c(Cl)c3)C2(Cl)Cl)cc1C(=O)NCC(F)(F)F (relative stereo) [F2042, trans-3-Chloro-5-(2,2-dichloro-3-(3-chloro-4-fluorophenyl)cyclopropane-1-carboxamido)-2-methyl-N-(2,2,2-trifluoroethyl)benzamide] the pest or weed control at 50 µg/cm2 [1, 5] was 50 to 100%, the YFM rating [2] was “A (80–100)” and the pest or weed control at 200 µg/mL [3, 6] was 80 to 100%. It also gave a pest or weed control at 50 µg/cm2 [4, 7] of 50 to 100%.
For CC(F)(F)CNC(=O)c1cc(NC(=O)[C@H]2[C@H](c3cc(Cl)cc(Cl)c3)C2(Cl)Cl)ccc1Cl (relative stereo) [F2075, trans-2-Chloro-5-(2,2-dichloro-3-(3,5-dichlorophenyl)cyclopropane-1-carboxamido)-N-(2,2-difluoropropyl)benzamide], the pest or weed control at 50 µg/cm2 [1, 5] was 50 to 100%, the YFM rating [2] was “B (More than 0 – Less than 80)” and the pest or weed control at 200 µg/mL [3, 6] was 80 to 100%. It also gave a pest or weed control at 50 µg/cm2 [4, 7] of 50 to 100%.
In the case of O=C(CNC(=O)c1cc(NC(=O)[C@H]2[C@H](c3cc(Cl)cc(Cl)c3)C2(Cl)Cl)ccc1Cl)NCC(F)(F)F (relative stereo) [F2078, trans-2-Chloro-5-(2,2-dichloro-3-(3,5-dichlorophenyl)cyclopropane-1-carboxamido)-N-(2-oxo-2-(2,2,2-trifluoroethylamino)ethyl)benzamide], the pest or weed control at 50 µg/cm2 [1, 5] was 50 to 100%, the YFM rating [2] was “A (80–100)” and the pest or weed control at 200 µg/mL [3, 6] was 80 to 100%. It also gave a pest or weed control at 50 µg/cm2 [4, 7] of 50 to 100%.
O=C(CCCNC(=O)c1cc(NC(=O)[C@H]2[C@H](c3cc(Cl)cc(Cl)c3)C2(Cl)Cl)ccc1Cl)NCC(F)(F)F (relative stereo) [F2080, trans-2-Chloro-5-(2,2-dichloro-3-(3,5-dichlorophenyl)cyclopropane-1-carboxamido)-N-(4-oxo-4-(2,2,2-trifluoroethylamino)butyl)benzamide] was tested, and the pest or weed control at 50 µg/cm2 [1, 5] was 50 to 100%, the YFM rating [2] was “B (More than 0 – Less than 80)” and the pest or weed control at 200 µg/mL [3, 6] was 0 to 80%. It also gave a pest or weed control at 50 µg/cm2 [4, 7] of 50 to 100%.
With O=C(CNC(=O)c1cc(NC(=O)[C@H]2[C@H](c3cc(Cl)cc(Cl)c3)C2(Cl)Cl)ccc1Cl)NCCC(F)(F)F (relative stereo) [F2081, trans-2-Chloro-5-(2,2-dichloro-3-(3,5-dichlorophenyl)cyclopropane-1-carboxamido)-N-(2-oxo-2-(3,3,3-trifluoropropylamino)ethyl)benzamide] the pest or weed control at 50 µg/cm2 [1, 5] was 50 to 100%, the YFM rating [2] was “A (80–100)” and the pest or weed control at 200 µg/mL [3, 6] was 80 to 100%. For the same molecule, the pest or weed control at 50 µg/cm2 [4, 7] was 50 to 100%.
With O=C(NCCNC(=O)C(F)(F)F)c1cc(NC(=O)[C@H]2[C@H](c3cc(Cl)cc(Cl)c3)C2(Cl)Cl)ccc1Cl (relative stereo) [F2082, trans-2-Chloro-5-(2,2-dichloro-3-(3,5-dichlorophenyl)cyclopropane-1-carboxamido)-N-(2-(2,2,2-trifluoroacetamido)ethyl)benzamide] the BAW rating ([1]; Beet Armyworm, Table ABC / ABC-DP rating) was “A (50–100)”, the YFM rating [2] was “B (More than 0 – Less than 80)” and the pest or weed control at 200 µg/mL [3, 6] was 80 to 100%. For the same molecule, the CL rating ([4]; Cabbage Looper, Table ABC / ABC-DP rating) was “A (50–100)”.
Nc1ccc(F)c(NC(=O)c2cc(NC(=O)[C@H]3[C@H](c4cc(Cl)cc(Cl)c4)C3(Cl)Cl)ccc2Cl)c1F [F1227, N-(3-Amino-2,6-difluorophenyl)-2-chloro-5-((1R,3R)-2,2-dichloro-3-(3,5-dichlorophenyl)cyclopropane-1-carboxamido)benzamide] was tested, and the pest or weed control at 50 µg/cm2 [1, 8] was 50 to 100%, the YFM [2] was “A (80–100)” and the pest or weed control at 200 µg/mL [3, 9] was 0 to 80%. The pest or weed control at 50 µg/cm2 [4, 10] was 50 to 100%.
In the case of Nc1ccc(F)c(NC(=O)c2cc(NC(=O)[C@H]3[C@H](c4cc(Cl)c(Cl)c(Cl)c4)C3(Cl)Cl)ccc2Cl)c1F [F1228, N-(3-Amino-2,6-difluorophenyl)-2-chloro-5-((1R,3R)-2,2-dichloro-3-(3,4,5-trichlorophenyl)cyclopropane-1-carboxamido)benzamide], the pest or weed control at 50 µg/cm2 [1, 8] was 50 to 100%, the YFM [2] was “A (80–100)” and the pest or weed control at 200 µg/mL [3, 9] was 0 to 80%. The pest or weed control at 50 µg/cm2 [4, 10] was 50 to 100%.
In the case of O=C(Nc1c(F)ccc(NC(=O)C(F)F)c1F)c1cc(NC(=O)[C@H]2[C@H](c3ccc(F)c(Cl)c3)C2(Cl)Cl)ccc1Cl [F1234, 2-Chloro-5-((1R,3R)-2,2-dichloro-3-(3-chloro-4-fluorophenyl)cyclopropane-1-carboxamido)-N-(3-(2,2-difluoroacetamido)-2,6-difluorophenyl)benzamide], the pest or weed control at 50 µg/cm2 [1, 8] was 50 to 100%, the YFM [2] was “A (80–100)” and the pest or weed control at 200 µg/mL [3, 9] was 80 to 100%. For the same molecule, the pest or weed control at 50 µg/cm2 [4, 10] was 50 to 100%.
In the case of O=C(Nc1c(F)ccc(NC(=O)C(F)F)c1F)c1cc(NC(=O)[C@H]2[C@H](c3cc(Cl)c(Cl)c(Cl)c3)C2(Cl)Cl)ccc1Cl [F1238, 2-Chloro-5-((1R,3R)-2,2-dichloro-3-(3,4,5-trichlorophenyl)cyclopropane-1-carboxamido)-N-(3-(2,2-difluoroacetamido)-2,6-difluorophenyl)benzamide], the pest or weed control at 50 µg/cm2 [1, 8] was 50 to 100%, the YFM [2] was “A (80–100)” and the pest or weed control at 200 µg/mL [3, 9] was 0 to 80%. It also gave a pest or weed control at 50 µg/cm2 [4, 10] of 50 to 100%.
For O=C(Nc1c(F)ccc(NC(=O)C(F)F)c1F)c1cc(NC(=O)[C@H]2[C@H](c3ccc(Cl)c(Cl)c3)C2(Cl)Cl)ccc1Cl [F1240, 2-Chloro-5-((1R,3R)-2,2-dichloro-3-(3,4-dichlorophenyl)cyclopropane-1-carboxamido)-N-(3-(2,2-difluoroacetamido)-2,6-difluorophenyl)benzamide], the pest or weed control at 50 µg/cm2 [1, 8] was 50 to 100%, the YFM [2] was “A (80–100)” and the pest or weed control at 200 µg/mL [3, 9] was 0 to 80%. For the same molecule, the pest or weed control at 50 µg/cm2 [4, 10] was 50 to 100%.
In the case of O=C(Nc1c(F)ccc(NC(=O)C(F)F)c1F)c1cc(NC(=O)[C@H]2[C@H](c3cc(Cl)cc(Cl)c3)C2(Cl)Cl)ccc1Cl [F1241, 2-Chloro-5-((1R,3R)-2,2-dichloro-3-(3,5-dichlorophenyl)cyclopropane-1-carboxamido)-N-(3-(2,2-difluoroacetamido)-2,6-difluorophenyl)benzamide], the pest or weed control at 50 µg/cm2 [1, 8] was 50 to 100%, the YFM [2] was “A (80–100)” and the pest or weed control at 200 µg/mL [3, 9] was 80 to 100%. It also gave a pest or weed control at 50 µg/cm2 [4, 10] of 50 to 100%.
With O=C(Nc1cc(NC(=O)C(F)F)c(F)cc1F)c1cc(NC(=O)[C@H]2[C@H](c3ccc(Cl)c(Cl)c3)C2(Cl)Cl)ccc1Cl [F1242, 2-Chloro-5-((1R,3R)-2,2-dichloro-3-(3,4-dichlorophenyl)cyclopropane-1-carboxamido)-N-(5-(2,2-difluoroacetamido)-2,4-difluorophenyl)benzamide] the pest or weed control at 50 µg/cm2 [1, 8] was 50 to 100%, the YFM [2] was “A (80–100)” and the pest or weed control at 200 µg/mL [3, 9] was 0 to 80%. The pest or weed control at 50 µg/cm2 [4, 10] was 50 to 100%.
In the case of O=C(Nc1cc(NC(=O)C(F)(F)Cl)c(F)cc1F)c1cc(NC(=O)[C@H]2[C@H](c3ccc(Cl)c(Cl)c3)C2(Cl)Cl)ccc1Cl [F1243, 2-Chloro-N-(5-(2-chloro-2,2-difluoroacetamido)-2,4-difluorophenyl)-5-((1R,3R)-2,2-dichloro-3-(3,4-dichlorophenyl)cyclopropane-1-carboxamido)benzamide], the pest or weed control at 50 µg/cm2 [1, 8] was 50 to 100%, the YFM [2] was “A (80–100)” and the pest or weed control at 200 µg/mL [3, 9] was 0 to 80%. The pest or weed control at 50 µg/cm2 [4, 10] was 50 to 100%.
